Earlier results on 1 compound are cited in patent US20230172943A1 (Mylan Specialty L.P., priority 2020, published 2023).

The conditions of the data set: orally delivered, humans.

On to `Cc1cnc(NC(=O)C2=C(O)c3ccccc3S(=O)(=O)N2C)s1` [meloxicam, 4-hydroxy-2-methyl-N-(5-methyl-2-thiazolyl)-2H-1,2-benzothiazine-3-carboxamide-1,1-dioxide], for which the “Tmax (time to reach maximum concentration)” value was 4 to 6 h and the “time to reach the therapeutic concentration that enables the onset of action” value is 2 to 3 h.
